Source: ChEMBL document CHEMBL5291721, “A preclinical secondary pharmacology resource illuminates target-adverse drug reaction associations of marketed drugs” (Nat Commun, 2023)

Key:
Cannabinoid receptor 1 = Cannabinoid receptor 1 (Homo sapiens, UniProt P21554); assay type: functional, cell-based
[1] = biological target: 5-hydroxytryptamine receptor 2B (Homo sapiens, UniProt P41595); assay type: functional, cell-based
Progesterone receptor [2] = biological target: T1, Progesterone receptor (Homo sapiens, UniProt P06401); assay type: functional
T1 sequence (P06401 whole entry): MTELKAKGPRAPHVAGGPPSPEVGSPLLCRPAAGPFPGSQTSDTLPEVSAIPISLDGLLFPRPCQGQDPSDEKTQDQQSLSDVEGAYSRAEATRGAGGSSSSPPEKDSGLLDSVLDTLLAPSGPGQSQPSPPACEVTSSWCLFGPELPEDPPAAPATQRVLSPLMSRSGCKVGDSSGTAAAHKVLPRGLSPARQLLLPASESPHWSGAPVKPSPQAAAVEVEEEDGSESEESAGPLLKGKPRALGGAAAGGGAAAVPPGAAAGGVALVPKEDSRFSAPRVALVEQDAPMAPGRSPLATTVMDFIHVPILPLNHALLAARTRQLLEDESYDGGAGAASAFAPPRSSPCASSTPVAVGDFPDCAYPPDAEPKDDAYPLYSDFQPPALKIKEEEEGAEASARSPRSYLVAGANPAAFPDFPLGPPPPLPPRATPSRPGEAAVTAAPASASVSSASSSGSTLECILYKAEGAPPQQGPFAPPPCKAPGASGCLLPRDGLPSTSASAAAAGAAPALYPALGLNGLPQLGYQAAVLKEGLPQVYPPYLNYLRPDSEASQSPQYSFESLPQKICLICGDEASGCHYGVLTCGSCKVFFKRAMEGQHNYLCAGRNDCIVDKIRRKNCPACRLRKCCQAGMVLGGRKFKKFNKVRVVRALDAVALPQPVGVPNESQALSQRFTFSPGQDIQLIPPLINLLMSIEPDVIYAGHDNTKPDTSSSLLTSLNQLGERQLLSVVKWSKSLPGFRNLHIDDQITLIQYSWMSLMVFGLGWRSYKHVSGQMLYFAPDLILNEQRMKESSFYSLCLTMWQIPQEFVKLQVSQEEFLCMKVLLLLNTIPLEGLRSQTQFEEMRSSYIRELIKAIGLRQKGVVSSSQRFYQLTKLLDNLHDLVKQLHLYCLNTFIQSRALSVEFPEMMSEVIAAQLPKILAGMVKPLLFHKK

Progesterone receptor [3] = biological target: T1, Progesterone receptor
Mu-type opioid receptor = Mu-type opioid receptor (Homo sapiens, UniProt P35372); experiment: biochemical; assay type: functional
Glucocorticoid receptor = biological target: T2, Glucocorticoid receptor (Homo sapiens, UniProt P04150)
T2 sequence (P04150 whole entry): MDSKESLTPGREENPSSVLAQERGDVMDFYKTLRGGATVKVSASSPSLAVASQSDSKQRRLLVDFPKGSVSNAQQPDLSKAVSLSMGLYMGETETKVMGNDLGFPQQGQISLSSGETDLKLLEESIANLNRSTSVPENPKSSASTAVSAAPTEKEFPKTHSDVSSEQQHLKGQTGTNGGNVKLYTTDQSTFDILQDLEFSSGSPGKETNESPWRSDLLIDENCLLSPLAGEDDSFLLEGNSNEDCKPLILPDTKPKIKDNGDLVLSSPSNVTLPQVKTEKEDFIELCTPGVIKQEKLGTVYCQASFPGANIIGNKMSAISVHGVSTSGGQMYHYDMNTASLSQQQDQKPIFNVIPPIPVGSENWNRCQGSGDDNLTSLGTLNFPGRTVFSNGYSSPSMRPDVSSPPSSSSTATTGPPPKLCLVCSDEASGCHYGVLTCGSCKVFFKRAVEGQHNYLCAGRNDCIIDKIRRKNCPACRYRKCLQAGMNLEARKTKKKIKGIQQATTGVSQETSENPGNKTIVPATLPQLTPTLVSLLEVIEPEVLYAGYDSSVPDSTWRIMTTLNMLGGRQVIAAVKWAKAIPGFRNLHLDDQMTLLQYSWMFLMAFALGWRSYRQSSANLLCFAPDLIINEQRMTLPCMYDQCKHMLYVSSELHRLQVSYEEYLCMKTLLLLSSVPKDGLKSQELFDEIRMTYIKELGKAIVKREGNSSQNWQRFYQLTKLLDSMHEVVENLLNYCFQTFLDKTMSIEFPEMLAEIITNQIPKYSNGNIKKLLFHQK
Also: assay procedure not described here.

5-hydroxytryptamine receptor 2B, sequence (P41595 whole entry): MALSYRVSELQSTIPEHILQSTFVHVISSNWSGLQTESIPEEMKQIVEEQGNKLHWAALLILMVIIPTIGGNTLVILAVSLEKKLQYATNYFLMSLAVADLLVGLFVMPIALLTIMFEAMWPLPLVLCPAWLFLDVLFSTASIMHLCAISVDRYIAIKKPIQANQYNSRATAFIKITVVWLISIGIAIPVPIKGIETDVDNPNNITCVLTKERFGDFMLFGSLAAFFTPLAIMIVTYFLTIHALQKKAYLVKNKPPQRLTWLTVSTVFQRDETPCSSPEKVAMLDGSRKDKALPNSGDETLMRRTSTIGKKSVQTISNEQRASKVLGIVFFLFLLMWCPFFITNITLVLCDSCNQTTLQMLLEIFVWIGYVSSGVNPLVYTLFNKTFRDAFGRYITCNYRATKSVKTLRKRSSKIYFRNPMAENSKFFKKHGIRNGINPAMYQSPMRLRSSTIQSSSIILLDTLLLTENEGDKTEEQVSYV
Cannabinoid receptor 1, sequence (P21554 whole entry): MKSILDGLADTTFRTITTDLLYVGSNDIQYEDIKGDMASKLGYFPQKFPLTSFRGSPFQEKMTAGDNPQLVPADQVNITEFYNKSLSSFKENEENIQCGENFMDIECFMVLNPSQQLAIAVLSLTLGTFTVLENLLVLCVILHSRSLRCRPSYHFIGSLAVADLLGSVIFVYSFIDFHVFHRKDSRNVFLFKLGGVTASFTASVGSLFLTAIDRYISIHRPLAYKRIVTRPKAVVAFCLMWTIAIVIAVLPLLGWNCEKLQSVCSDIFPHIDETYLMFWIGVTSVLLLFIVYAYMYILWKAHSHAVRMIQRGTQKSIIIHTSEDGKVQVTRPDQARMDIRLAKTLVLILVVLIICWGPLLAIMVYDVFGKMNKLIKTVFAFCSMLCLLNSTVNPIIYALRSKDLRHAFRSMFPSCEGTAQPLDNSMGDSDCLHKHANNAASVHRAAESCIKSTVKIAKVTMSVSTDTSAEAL
Mu-type opioid receptor, sequence (P35372 whole entry): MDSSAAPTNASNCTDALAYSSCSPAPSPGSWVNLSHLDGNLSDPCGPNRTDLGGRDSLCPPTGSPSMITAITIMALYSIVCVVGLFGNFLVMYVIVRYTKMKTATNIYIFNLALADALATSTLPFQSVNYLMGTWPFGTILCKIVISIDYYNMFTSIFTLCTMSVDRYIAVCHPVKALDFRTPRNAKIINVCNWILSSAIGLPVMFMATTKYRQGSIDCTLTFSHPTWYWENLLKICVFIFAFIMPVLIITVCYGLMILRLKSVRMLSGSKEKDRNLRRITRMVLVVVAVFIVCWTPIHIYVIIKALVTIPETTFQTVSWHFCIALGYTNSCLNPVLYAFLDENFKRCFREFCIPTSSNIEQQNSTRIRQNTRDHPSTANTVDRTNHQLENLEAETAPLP

| Structure (SMILES) | AC50 (Cannabinoid receptor 1) [µM] | AC50 [1] [µM] | AC50 (Progesterone receptor [2]) [µM] | AC50 (Progesterone receptor [3]) [µM] | AC50 (Mu-type opioid receptor) [µM] | AC50 (Glucocorticoid receptor) [µM] |
| --- | --- | --- | --- | --- | --- | --- |
| CCCN[C@H]1CCc2nc(N)sc2C1 [PRAMIPEXOLE] | > 30 | > 10 | > 30 |  |  |  |
| COc1ccc(CN(CCN(C)C)c2ccccn2)cc1 [PYRILAMINE] |  |  |  | > 30 |  |  |
| CC(C)[C@H](N)C(=O)OCC(CO)OCn1cnc2c(=O)nc(N)[nH]c21 (stereo not given in full) [VALGANCICLOVIR] |  | > 30 | > 30 |  | > 30 | > 30 |
| [H]/N=C(/N)N/C(=N/[H])NCCc1ccccc1 [PHENFORMIN] |  | > 10 |  |  | > 30 | > 30 |
| C=C1CC[C@H](O)C/C1=C/C=C1\CCC[C@]2(C)[C@@H]([C@H](C)/C=C/[C@H](C)C(C)C)CC[C@@H]12 [ERGOCALCIFEROL] |  |  |  | > 30 |  |  |
| C#C[C@]1(OC(C)=O)CC[C@H]2[C@@H]3CCC4=C/C(=N/O)CC[C@@H]4[C@H]3CC[C@@]21CC [NORGESTIMATE] | > 30 | > 30 | 0.02 |  | > 30 | 0.041 |
| Cc1cc2cc3c(C)cc(=O)oc3c(C)c2o1 [TRIOXSALEN] |  | > 10 | > 30 |  | > 30 |  |
| OC1(c2ccc(Cl)cc2)c2ccccc2C2=NCCN21 (stereo not given) [MAZINDOL] | > 30 | > 30 | > 30 |  | 16 | > 30 |
| CCCCC1C(=O)N(c2ccccc2)N(c2ccccc2)C1=O [PHENYLBUTAZONE] |  | > 10 | > 10 |  |  | > 10 |
| Clc1ccc(C(Cn2ccnc2)OCc2ccsc2Cl)c(Cl)c1 (stereo not given) [TIOCONAZOLE] |  | > 30 | > 30 |  | > 30 | 17.9 |
| COc1cc(N)c(Cl)cc1C(=O)NC1CCN(Cc2ccccc2)CC1 [CLEBOPRIDE] | > 30 | 0.98 | > 30 |  | > 30 | > 30 |
| CCC1(c2ccccc2)CCC(=O)NC1=O (stereo not given) [GLUTETHIMIDE] | > 30 | > 10 | > 10 |  |  |  |
| Nc1ncn([C@H]2C[C@H](O)[C@@H](CO)O2)c(=O)n1 [DECITABINE] |  | > 30 | > 30 |  | > 30 | > 30 |
| Cc1noc(NS(=O)(=O)c2ccc(N)cc2)c1C [SULFISOXAZOLE] | > 30 | > 10 | > 10 |  |  |  |
| CNCc1ccc(-c2[nH]c3cc(F)cc4c3c2CCNC4=O)cc1 [RUCAPARIB] |  |  | 15.6 |  |  | > 30 |
| Cc1ccccc1N1CCN(CCc2nnc3n2CCCC3)CC1 [DAPIPRAZOLE] |  |  |  | > 30 |  |  |
| CC(C)NCC(O)c1ccc(O)c(O)c1 (stereo not given) [ISOPROTERENOL] | > 30 | > 10 | > 30 |  |  | > 30 |
| CCC[C@H](NC(=O)[C@@H]1[C@H]2CCC[C@H]2CN1C(=O)[C@@H](NC(=O)[C@@H](NC(=O)c1cnccn1)C1CCCCC1)C(C)(C)C)C(=O)C(=O)NC1CC1 |  |  |  |  |  | > 30 |
| CC(C)(C)C(=O)OCC(=O)[C@H]1CC[C@H]2[C@@H]3CCC4=CC(=O)CC[C@]4(C)[C@H]3CC[C@]12C [DESOXYCORTICOSTERONE PIVALATE] | > 30 | > 10 | 0.213 |  |  |  |
| C=CCNc1nc(NCC=C)nc(N2CCN(C(c3ccc(F)cc3)c3ccc(F)cc3)CC2)n1 [ALMITRINE] |  | > 30 | > 30 |  | > 30 | > 30 |
| CC(C)COCC(CN(Cc1ccccc1)c1ccccc1)N1CCCC1 (stereo not given) [BEPRIDIL] |  | 28 | > 30 |  | 17 | > 30 |
| CC1OC2(CS1)CN1CCC2CC1 (stereo not given) [CEVIMELINE] |  | > 10 | > 10 |  | > 30 | > 10 |
| Cc1c(N(C)CS(=O)(=O)O)c(=O)n(-c2ccccc2)n1C [METAMIZOLE] |  |  |  | > 30 |  |  |
| C[C@H](Cc1ccc(O)c(O)c1)[C@@H](C)Cc1ccc(O)c(O)c1 [MASOPROCOL] | > 30 | 11 | > 30 |  |  | 8.7 |
